The values that follow are results of earlier work, collected in patent publication US20050266409A1, “Compositions and methods for diagnosing, preventing, and treating cancers” (priority 2003, published 2005).

Structures are written as SMILES.

Data set [1] relates to lymphoid, myeloid, colon, and prostate cancer cells. Conditions: prostate cancer xenografts in nude mice.
The subject of the next data set is tumor cells. Conditions: read-out: 50% growth inhibition of tumor cells.

For `CN1CC[C@H](c2c(O)cc(O)c3c(=O)cc(-c4ccccc4Cl)oc23)[C@H](O)C1` [Flavopiridol], in data set [1], the “inhibition of cancer cells grown in vivo as tumor xenografts” value was “inhibits”. Besides, the IC50 in the data set with tumor cells is 60 nM.
